Laboratory results from patent US12161722B2, “Bifunctional heterocyclic compound having BTK degradation function via ubiquitin proteasome pathway, and use thereof” (KOREA RESEARCH INSTITUTE OF CHEMICAL TECHNOLOGY, priority 2021, dated 2024).

These compounds were tested against T1, WT BTK protein (Homo sapiens, UniProt Q06187) (assay: BTK protein degradation assay (Western blotting), WT BTK). Conditions: concentration range accounting for 50% degradation of WT BTK protein, TMD-8 or RAMOS cells, 24 hours.
T1 construct: measured for intracellular BTK protein levels by Western blotting; endogenous in cells; host or cells: TMD-8 or RAMOS cells
T1 sequence (Q06187 whole entry): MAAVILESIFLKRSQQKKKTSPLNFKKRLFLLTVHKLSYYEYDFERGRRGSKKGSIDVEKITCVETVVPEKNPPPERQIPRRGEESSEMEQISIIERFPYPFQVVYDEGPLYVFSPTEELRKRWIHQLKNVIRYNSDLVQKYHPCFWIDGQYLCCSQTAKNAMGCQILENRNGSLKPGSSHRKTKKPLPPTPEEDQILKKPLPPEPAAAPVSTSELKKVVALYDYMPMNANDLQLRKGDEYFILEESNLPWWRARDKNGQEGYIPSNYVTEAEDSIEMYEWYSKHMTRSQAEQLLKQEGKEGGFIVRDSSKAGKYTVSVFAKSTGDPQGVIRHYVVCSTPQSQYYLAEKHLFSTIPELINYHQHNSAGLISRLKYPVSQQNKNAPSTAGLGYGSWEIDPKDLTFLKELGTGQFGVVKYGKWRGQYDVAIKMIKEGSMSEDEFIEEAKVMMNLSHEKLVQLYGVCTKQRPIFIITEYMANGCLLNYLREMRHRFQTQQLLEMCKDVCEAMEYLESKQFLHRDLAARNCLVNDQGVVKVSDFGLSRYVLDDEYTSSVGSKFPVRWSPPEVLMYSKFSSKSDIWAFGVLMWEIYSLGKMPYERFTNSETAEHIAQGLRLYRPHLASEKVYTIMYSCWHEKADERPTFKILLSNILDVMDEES
Assay type: cell-based
Outline: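 BTK levels were read by Western blotting (GAPDH and β-actin normalisers) in RIPA lysates of TMD-8 cells exposed to compounds for 24 h at 1×10^6 cells/mL. Results scored in ranges of the concentration producing 50% loss of WT BTK.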
Work on `Cn1nc(Nc2c(Cl)cccc2Cl)c2cnc(Nc3ccc4c(c3)CN(CC3CCN(c5ccc6c(c5)C(=O)N(C5CCC(=O)NC5=O)C6=O)CC3)CC4)nc21` (stereo not shown) [Compound 82, 5-(4-((7-((3-((2,6-Dichlorophenyl)amino)-1-methyl-1H-pyrazolo[3,4-d]pyrimidin-6-yl)amino)-3,4-dihydroisoquinolin-2 (1H)-yl)methyl)piperidin-1-yl)-2-(2,6-dioxopiperidin-3-yl)isoindoline-1,3-dione] yielded a DC50 of 0.1 to 10 nM.
With `Cc1cccc(C)c1Nc1nn(C)c2nc(Nc3ccc(N4CCN(c5cc6c(cc5F)C(=O)N(C5CCC(=O)NC5=O)C6=O)CC4)cc3)ncc12` (stereo not shown) [Compound 239, 5-(4-(4-((3-((2,6-Dimethylphenyl)amino)-1-methyl-1H-pyrazolo[3,4-d]pyrimidin-6-yl)amino)phenyl)piperazin-1-yl)-2-(2,6-dioxopiperidin-3-yl)-6-fluoroisoindoline-1,3-dione] the DC50 was 10 to 1000 nM.
Work on `Cc1cccc(C)c1Nc1nn(C)c2nc(Nc3ccc4c(c3)CN(CC3CN(C(=O)CNc5ccc6c(c5)C(=O)N(C5CCC(=O)NC5=O)C6=O)C3)CC4)ncc12` (stereo not shown) [Compound 51, 5-((2-(3-((7-((3-((2,6-Dimethylphenyl)amino)-1-methyl-1H-pyrazolo[3,4-d]pyrimidin-6-yl)amino)-3,4-dihydroisoquinolin-2 (1H)-yl)methyl)azetidin-1-yl)-2-oxoethyl)amino)-2-(2,6-dioxopiperidin-3-yl)isoindoline-1,3-dione] yielded a DC50 of 0.1 to 10 nM.
`Cc1cccc(C)c1Nc1nn(C)c2nc(Nc3ccc4c(c3)CN(C(=O)CCC3CCN(c5ccc6c(c5)C(=O)N(C5CCC(=O)NC5=O)C6=O)CC3)CC4)ncc12` (stereo not shown) [Compound 126, 5-(4-(3-(7-((3-((2,6-Dimethylphenyl)amino)-1-methyl-1H-pyrazolo[3,4-d]pyrimidin-6-yl)amino)-3,4-dihydroisoquinolin-2 (1H)-yl)-3-oxopropyl)piperidin-1-yl)-2-(2,6-dioxopiperidin-3-yl)isoindoline-1,3-dione] gave a DC50 of 0.1 to 10 nM.
`Cc1cccc(C)c1Nc1nn(C)c2nc(Nc3ccc4c(c3)CN(C(=O)CNCc3ccc5c(c3)CN(C3CCC(=O)NC3=O)C5=O)CC4)ncc12` (stereo not shown) [Compound 98, 3-(5-(((2-(7-((3-((2,6-Dimethylphenyl)amino)-1-methyl-1H-pyrazolo[3,4-d]pyrimidin-6-yl)amino)-3,4-dihydroisoquinolin-2 (1H)-yl)-2-oxoethyl)amino)methyl)-1-oxoisoindolin-2-yl)piperidin-2,6-one] showed a DC50 of 0.1 to 10 nM.
`Cc1cccc(C)c1Nc1nn(C)c2nc(Nc3ccc(C4CCN(C[C@H]5CCN(c6ccc7c(c6)C(=O)N(C6CCC(=O)NC6=O)C7=O)C5)CC4)cc3)ncc12` (stereo partly drawn) [Compound 166, 5-((R)-3-((4-(4-((3-((2,6-Dimethylphenyl)amino)-1-methyl-1H-pyrazolo[3,4-d]pyrimidin-6-yl)amino)phenyl)piperidin-1-yl)methyl)pyrrolidin-1-yl)-2-(2,6-dioxopiperidin-3-yl)isoindoline-1,3-dione] was tested, and the DC50 was 0.1 to 10 nM.
`Cc1cccc(C)c1Nc1nn(C)c2nc(Nc3ccc4c(c3)CN(C(=O)C3CCN(C(=O)C5CCN(c6ccc7c(c6)C(=O)N(C6CCC(=O)NC6=O)C7=O)CC5)C3)CC4)ncc12` (stereo not shown) [Compound 67, 5-(4-(3-(7-((3-((2,6-Dimethylphenyl)amino)-1-methyl-1H-pyrazolo[3,4-d]pyrimidin-6-yl)amino)-1,2,3,4-tetrahydroisoquinoline-2-carbonyl)pyrrolidine-1-carbonyl)piperidin-1-yl)-2-(2,6-dioxopiperidin-3-yl)isoindoline-1,3-dione] showed a DC50 of 10 to 1000 nM.
In the case of `Cc1cccc(C)c1Nc1nn(C)c2nc(Nc3ccc4c(c3)CN(C[C@@H]3[C@H]5CN(c6ccc7c(c6)C(=O)N(C6CCC(=O)NC6=O)C7=O)C[C@@H]35)CC4)ncc12` (stereo partly drawn) [Compound 148, 5-((1R,5S,6S)-6-((7-((3-((2,6-Dimethylphenyl)amino)-1-methyl-1H-pyrazolo[3,4-d]pyrimidin-6-yl)amino)-3,4-dihydroisoquinolin-2 (1H)-yl)methyl)-3-azabicyclo[3.1.0]hexan-3-yl)-2-(2,6-dioxopiperidin-3-yl)isoindoline-1,3-dione], the DC50 is reported as 0.1 to 10 nM.
Work on `Cc1cccc(C)c1Nc1nn(C)c2nc(Nc3ccc4c(c3)CN(C(=O)[C@@H]3CCCN3C(=O)CN3CCN(c5ccc6c(c5)C(=O)N(C5CCC(=O)NC5=O)C6=O)CC3)CC4)ncc12` (stereo partly drawn) [Compound 33, 5-(4-(2-((S)-2-(7-((3-((2,6-Dimethylphenyl)amino)-1-methyl-1H-pyrazolo[3,4-d]pyrimidin-6-yl)amino)-1,2,3,4-tetrahydroisoquinoline-2-carbonyl)pyrrolidin-1-yl)-2-oxoethyl)piperazin-1-yl)-2-(2,6-dioxopiperidin-3-yl)isoindoline-1,3-dione] yielded a DC50 of 10 to 1000 nM.
Compound `Cc1cccc(C)c1Nc1nn(C)c2nc(Nc3ccc4c(c3)CN(CC3CCN(C(=O)CNc5ccc6nnn(C7CCC(=O)NC7=O)c(=O)c6c5)CC3)CC4)ncc12` (stereo not shown) [Compound 52, 3-(6-((2-(4-((7-((3-((2,6-Dimethylphenyl)amino)-1-methyl-1H-pyrazolo[3,4-d]pyrimidin-6-yl)amino)-3,4-dihydroisoquinolin-2 (1H)-yl)methyl)piperidin-1-yl)-2-oxoethyl)amino)-4-oxobenzo[d][1,2,3]triazin-3 (4H)-yl)piperidin-2,6-one] has a DC50 of 0.1 to 10 nM.
`Cc1cccc(C)c1Nc1nn(C)c2nc(Nc3ccc(C4CN(CC5CN(c6ccc7c(c6)C(=O)N(C6CCC(=O)NC6=O)C7=O)C5)C4)cc3)ncc12` (stereo not shown) [Compound 182, 5-(3-((3-(4-((3-((2,6-Dimethylphenyl)amino)-1-methyl-1H-pyrazolo[3,4-d]pyrimidin-6-yl)amino)phenyl)azetidin-1-yl)methyl)azetidin-1-yl)-2-(2,6-dioxopiperidin-3-yl)isoindoline-1,3-dione] was tested, and the DC50 was 0.1 to 10 nM.
In the case of `COc1ccc(Nc2nn(C)c3nc(Nc4ccc5c(c4)CN(CC4CCN(c6ccc7c(c6)C(=O)N(C6CCC(=O)NC6=O)C7=O)CC4)CC5)ncc23)c(C)c1` (stereo not shown) [Compound 118, 2-(2,6-Dioxopiperidin-3-yl)-5-(4-((7-((3-((4-methoxy-2-methylphenyl)amino)-1-methyl-1H-pyrazolo[3,4-d]pyrimidin-6-yl)amino)-3,4-dihydroisoquinolin-2 (1H)-yl)methyl)piperidin-1-yl)isoindoline-1,3-dione], the DC50 is reported as 1000 to 10000 nM.
With `Cc1cccc(C)c1Nc1nn(C)c2nc(Nc3ccc4c(c3)CN(C(=S)C3CCN(c5cc6c(cc5F)C(=O)N(C5CCC(=O)NC5=O)C6=O)CC3)CC4)ncc12` (stereo not shown) [Compound 233, 5-(4-(7-((3-((2,6-dimethylphenyl)amino)-1-methyl-1H-pyrazolo[3,4-d]pyrimidin-6-yl)amino)-1,2,3,4-tetrahydroisoquinoline-2-carbonothioyl)piperidin-1-yl)-2-(2,6-dioxopiperidin-3-yl)-6-fluoroisoindoline-1,3-dione] the DC50 was 0.1 to 10 nM.
`Cc1cccc(C)c1Nc1nn(C)c2nc(Nc3cccc(CNCC4CCN(C(=O)C5CCN(c6ccc7c(c6)C(=O)N(C6CCC(=O)NC6=O)C7=O)CC5)CC4)c3)ncc12` (stereo not shown) [Compound 42, 5-(4-(4-(((3-((3-((2,6-Dimethylphenyl)amino)-1-methyl-1H-pyrazolo[3,4-d]pyrimidin-6-yl)amino)benzyl)amino)methyl)piperidine-1-carbonyl)piperidin-1-yl)-2-(2,6-dioxopiperidin-3-yl)isoindoline-1,3-dione] was tested, and the DC50 was 0.1 to 10 nM.
For `Cc1cccc(C)c1Nc1nn(C)c2nc(Nc3ccc4c(c3)CN(CC3CCN(C(=O)CNc5ccc6c(c5)C(=O)N(C5CCC(=O)NC5=O)C6=O)CC3)CC4)ncc12` (stereo not shown) [Compound 36, 5-((2-(4-((7-((3-((2,6-Dimethylphenyl)amino)-1-methyl-1H-pyrazolo[3,4-d]pyrimidin-6-yl)amino)-3,4-dihydroisoquinolin-2 (1H)-yl)methyl)piperidin-1-yl)-2-oxoethyl)amino)-2-(2,6-dioxopiperidin-3-yl)isoindoline-1,3-dione], the DC50 was 0.1 to 10 nM.
For `Cc1cccc(C)c1Nc1nn(C)c2nc(Nc3ccc(C4CCN(C(=O)CN5CCN(c6ccc7c(c6)C(=O)N(C6CCC(=O)NC6=O)C7=O)CC5)CC4)cc3)ncc12` (stereo not shown) [Compound 225, 5-(4-(2-(4-(4-((3-((2,6-dimethylphenyl)amino)-1-methyl-1H-pyrazolo[3,4-d]pyrimidin-6-yl)amino)phenyl)piperidin-1-yl)-2-oxoethyl)piperazin-1-yl)-2-(2,6-dioxopiperidin-3-yl)isoindoline-1,3-dione], the DC50 was 0.1 to 10 nM.
Compound `Cc1cccc(C)c1Nc1nn(C)c2nc(Nc3ccc4c(c3)CN(C3CCN(C[C@H]5CCCN(c6ccc7c(c6)C(=O)N(C6CCC(=O)NC6=O)C7=O)C5)CC3)CC4)ncc12` (stereo partly drawn) [Compound 140, 5-((R)-3-((4-(7-((3-((2,6-dimethylphenyl)amino)-1-methyl-1H-pyrazolo[3,4-d]pyrimidin-6-yl)amino)-3,4-dihydroisoquinolin-2 (1H)-yl)piperidin-1-yl)methyl)piperidin-1-yl)-2-(2,6-dioxopiperidin-3-yl)isoindoline-1,3-dione] has a DC50 of 0.1 to 10 nM.
`Cc1cccc(C)c1Nc1nn(C)c2nc(Nc3ccc4c(c3)CN(C(=O)Cc3cccc(NC5=CC(=O)N(C6CCC(=O)NC6=O)C5=O)c3)CC4)ncc12` (stereo not shown) [Compound 192, 3-(3-((3-(2-(7-((3-((2,6-Dimethylphenyl)amino)-1-methyl-1H-pyrazolo[3,4-d]pyrimidin-6-yl)amino)-3,4-dihydroisoquinolin-2 (1H)-yl)-2-oxoethyl)phenyl)amino)-2,5-dioxo-2,5-dihydro-1H-pyrrol-1-yl)piperidin-2,6-one] showed a DC50 of 10 to 1000 nM.
`Cc1cccc(C)c1Nc1nn(C)c2nc(Nc3ccc4c(c3)CN(C(=O)C3(F)CCN(C(=O)C5CCN(c6ccc7c(c6)C(=O)N(C6CCC(=O)NC6=O)C7=O)CC5)CC3)CC4)ncc12` (stereo not shown) [Compound 246, 5-(4-(4-(7-((3-((2,6-dimethylphenyl)amino)-1-methyl-1H-pyrazolo[3,4-d]pyrimidin-6-yl)amino)-1,2,3,4-tetrahydroisoquinoline-2-carbonyl)-4-fluoropiperidine-1-carbonyl)piperidin-1-yl)-2-(2,6-dioxopiperidin-3-yl)isoindoline-1,3-dione] was tested, and the DC50 was 0.1 to 10 nM.
